“And” between values parts separate entries of the source, which are not always exact repeats. Identical values can stand only once. Like-named read-outs stand apart in the source and are kept apart here.
What was measured:
[1] = Single ascending dose study, clinical Phase 1: plasma levels; format: in vivo; details: human; for Cmax: plasma, SAD, read-out: Maximal plasma concentration (Cmax)
Method: A single ascending BIO101 dose study during clinical Phase 1 trial is performed. […] This low concentration is clearly below optimal conditions (with only 26 and 32% of efficacy for two selected markers of differentiation, see FIGS. 10A-B) and is not responsible for significant efficacy in terms of anabolism (FIGS. 11A-B).
FIG. 12A-B are graphs of plasma levels of BIO101 in human following 100, 350 and 700 mg administration.

[2] = test system: myostatin gene expression; experiment: Myostatin gene expression in C2C12 myotubes by qRT-PCR; format: cell-based, mouse; details: 6 hours, vs untreated control
Method: In FIG. 11B, C2C12 mouse myoblasts were differentiated for 6 days into myotubes. They were then treated for 6 hours with concentrations of 20E ranging from 0.001 to 10 μM. Myostatin gene expression was detected by qRT-PCR. Results are shown as means±SEM with ***p<0.001, **p<0.01, *p<0.05 vs untreated control (one-way ANOVA with Dunnett's test compared to untreated control).

C2C12 myoblast = C2C12 myoblast differentiation (fusion index, number of nuclei per myotube); format: cell-based, mouse; details: for EC50: C2C12 myoblasts, 6-day differentiation in the presence of the drug, read-out: EC50 for number of nuclei per myotube increase
Method: FIGS. 10A-B are graphs of BIO101 efficacy 50% value (EC50) determination on myoblasts differentiation. The fusion index and number of nuclei per myotubes were measured after 6-day differentiation in the presence of the drug.
The fusion index and the number of nuclei per myotube are recognized parameters of myoblast differentiation. The fusion index was calculated as the ratio of nuclei in fused MHC-positive cells 2 nuclei per cells) to the total nuclei number. […] EC50 values (efficacious doses 50%) for each parameter were calculated by the integration of effect vs [BIO101] curves.

sarcopenic patients = experiment: Clinical trial in sarcopenic patients: gait speed in 400 meters walking test; format: in vivo, human; details: 6 months; for improvement in gait speed in 400 meters walking test compared to placebo: 700 mg daily
Description: After 6 months of treatment, an improvement of 0.09 m/s in the full analyze set (FAS) population and 0.10 m/s in the per protocol (PP) population (treatment effect significant, p<0.01) were observed. This effect of Sarconeos (BIO101) corresponds to the minimal clinically important difference (MCID) in sarcopenia (0.1 m/s), associated with a reduction in mobility and disability in elderly (Perera et al. 2006).

C2C12 cells = experiment: Protein synthesis in differentiated C2C12 myotubes by [3H]-leucine incorporation; format: cell-based, mouse; details: 0.1 μM, vs untreated control
Description: FIGS. 11A-B are graph of effects of 20-hydroxyecdysone (20E) on protein synthesis and myostatin gene expression in C2C12 cells. […] Results are shown as means±SEM, ***p<0.001, **p<0.01, *p<0.05 vs untreated control (Kruskal-Wallis followed by a Dunn's test).

[3] = Multiple ascending dose study, clinical Phase 1: adverse events; format: in vivo; details: human, daily administrations of 900 mg, MAD
Method: A multiple ascending BIO101 dose study was performed during clinical Phase 1 trial. […] For this reason, in clinical Phase 2, the daily dose of 900 mg was not tested.

UCP2 gene transcripts = experiment: Quantity of UCP2 gene transcripts (mRNA) in muscle of high-fat diet mice; format: in vivo, male C57BL/6J mice; details: high-fat diet 3 weeks, 5 mg of 20E per kg body weight per day; vs high-fat diet alone
Description: (§1) The effect of phytoecdysones is observed on mice subjected to a high-fat diet during 3 weeks.
(§2) The HF high-fat diet involved the intake of large amounts of fat in the form of lard. The mice selected for the study were male C57BL/6J mice, 6 weeks old at the start of the experiment.
(§3) The mice in the study were grouped according to the dietary regimes and treatments to which they were subjected: normal or control diet (LF), high-fat diet (HF), high-fat diet supplemented with quinoa extract (HFQ) and high-fat diet supplemented with pure 20-hydroxyecdysone (HF20E).
(§4) The mice were subjected to the dietary regimes detailed in Table 1 below for three weeks and the mice fed a high-fat diet were treated in parallel with pure 20E or extract A (2% 20E). The concentration of 20E was adjusted to equal 40 mg per kg of food.
(§5) In light of the average food intake of the mice, the dose of 20E administered corresponded in the two treatments to 5 mg of 20E per kg of body weight per day. The food was supplied in excess every day for both dietary regimes and all three treatments. […]
(§6) FIG. 4 illustrates a graph plotting quantities of gene transcripts (mRNA), as measured in the muscle, against diet and associated treatment. The quantities have been normalized with respect to the quantities measured in the muscles of mice fed the control diet.

UCP3 gene transcripts = experiment: Quantity of UCP3 gene transcripts (mRNA) in muscle of high-fat diet mice; format: in vivo, male C57BL/6J mice; details: high-fat diet 3 weeks, 5 mg of 20E per kg body weight per day; vs high-fat diet alone
Description: as §1, §2, §3, §4, §5, §6

[4] = test system: mice subjected to a high-fat diet; experiment: Mice subjected to a high-fat diet for 3 weeks: carcass weight, quadriceps composition, energy balance; format: in vivo, male C57BL/6J mice; details: high-fat diet 3 weeks
Method: as §1, §2
Mice not subjected to a high fat diet, forming a normal diet control group, were tested in parallel.
as §3, §4
In light of the average food intake of the mice, the dose of 20E administered corresponded in the two treatments to 5 mg of 20E per kg of body weight per day. The food was supplied in excess every day for both dietary regimes and all three treatments. On average, 40 g of food was provided per cage per day or 6.5 g of food per mouse per day.
Table 1 below sets out in greater detail the composition of the diets to which mice were subjected:
Following sacrifice, aliquots of muscle (quadriceps) were collected for analysis. FIG. 2 illustrates a graph plotting muscle triglyceride content against diet and associated treatment.

[5] = test system: CPT-1 intracellular fatty acid transporter gene transcripts; experiment: Quantity of CPT-1 gene transcripts (mRNA) in muscle of high-fat diet mice; format: in vivo, male C57BL/6J mice; details: high-fat diet 3 weeks, 5 mg of 20E per kg body weight per day
Description: as §1, §2, §3, §4, §5, §6

CC(C)(O)CC[C@@H](O)[C@](C)(O)[C@H]1CC[C@@]2(O)C3=CC(=O)[C@@H]4C[C@@H](O)[C@@H](O)C[C@]4(C)[C@H]3CC[C@]12C [BIO101]
plasma exposure (maximal concentration from plot vs administered dose) ([1]; 175 mg administration (5 mg/kg for a 35 kg patient), read from FIG. 12B): 0.4 µM | Cmax ([1]; 100 mg dose): 260 nM and 126 ng/mL | Cmax ([1]; 350 mg dose): 630 nM and 304 ng/mL | Cmax ([1]; 700 mg dose): 780 nM and 374 ng/mL | inhibition of myostatin gene expression ([2]; 0.1 μM): not yet significant | inhibition of myostatin gene expression ([2]; concentration equal or higher than 0.5 μM): significant | EC50 (C2C12 myoblast): 550 nM | EC50 (C2C12 myoblast; Mus musculus, C2C12, 144 h): 556 nM | % of efficacy on differentiation marker (first marker, fusion index) (C2C12 myoblast; at 0.26 μM, the plasma peak of a 100 mg dose, read from FIG. 10A): 26% | % of efficacy on differentiation marker (second marker, number of nuclei per myotube) (C2C12 myoblast; at 0.26 μM, the plasma peak of a 100 mg dose, read from FIG. 10B): 32% | gait speed in 400 meters walking test compared to placebo (sarcopenic patients; 350 mg daily, notably in a frail sub population of the FAS): improvement | improvement in gait speed in 400 meters walking test compared to placebo (sarcopenic patients; full analyze set (FAS) population): 0.09 m/s | improvement in gait speed in 400 meters walking test compared to placebo (sarcopenic patients; per protocol (PP) population, p<0.01): 0.10 m/s | effect on protein synthesis (C2C12 cells): not yet significant | treatment-related TEAEs (treatment-emergent adverse events) [3]: high number of subjects with treatment-related TEAEs

CC(C)(O)CC[C@@H](O)[C@](C)(O)[C@H]1CC[C@@]2(O)C3=CC(=O)[C@@H]4C[C@@H](O)[C@@H](O)C[C@]4(C)[C@H]3CC[C@]12C [20E, 20-hydroxyecdysone]
quantity of UCP2 gene transcripts in muscle (UCP2 gene transcripts): tendency to increased quantities | quantity of UCP3 gene transcripts in muscle (UCP3 gene transcripts): increase | energy expenditure higher than high-fat diet alone ([4]; 5 mg of 20E per kg body weight per day): 9% | food intake (energy, kcal) ([4]; 5 mg of 20E per kg body weight per day, compared with animals fed the standard diet): same amount of energy | higher muscle protein content (quadriceps) ([4]; 5 mg of 20E per kg body weight per day, trend, compared to HF treatment alone): 5% | lower muscle triglyceride content (quadriceps) ([4]; 5 mg of 20E per kg body weight per day, trend, vs high-fat diet alone): 26% | lean body mass (carcass defatted) / carcass weight ([4]; 5 mg of 20E per kg of body weight per day in food, vs high-fat diet alone): increase that has allowed the mice to return virtually to the same level as the normal diet | quantity of CPT-1 gene transcripts in muscle [5]: tends to restore transcript levels to those seen for the control diet
